One test has as its system Matricaria inodora. The experiment in a line: greenhouse pre-emergence trial, percent damage vs untreated control 21 days after treatment. It is filed as in vivo. The settings on record: 3.75 g/ha, MATIN, Example 2.
The next test deals with Setaria viridis. The test is described as above. Type of test: in vivo. The settings on record: SETVI, Example 1A.

For the molecule `FC(F)(F)c1ccc(-c2nccc(Oc3cccc(C(F)(F)F)c3)n2)cc1` [Compound A, 4-(3-trifluoromethylphenoxy)-2-(4-trifluoromethylphenyl)-pyrimidine], the “Compound A alone (% control)” value was found to be 50% in the test with Matricaria inodora, 0% in the test with Setaria viridis (3.75 g/ha) and 35% in the test with Setaria viridis (7.5 g/ha).

Values taken from patent US6683027B2, “Herbicidal mixtures” (BASF Aktienegesellschaft, priority 2000, dated 2004).
